Laboratory results from patent US12214058B2, “Imaging methods using deuterated compounds” (Genentech, Inc., priority 2014, dated 2025).

Legend:
[1] = Dynamic microPET imaging in mice; format: in vivo, mice (C57BL/6)
Procedure: MicroPET Imaging The PET imaging was performed on Inveon PET/CT scanner (Siemens Medical Solutions USA Inc.). Animals anesthetized with sevoflurane were placed head-first, prone position on the scanner bed and dynamic 45 min scans were initiated. Approximately 3.7 MBq of ^18F-radiolabeled tracer in isotonic solution (100-130 μL) was administered as 60 second intravenous infusion via the tail vein. Body temperature was measured by a rectal probe and maintained with warm air flow at 37° C. Full-body iterative image reconstructions were obtained using maximum a posteriori algorithm (MAP, hyperparameter β 0.05) and corrected for signal attenuation using the tissue density obtained from CT. Projections were created with PMOD 3.305 (PMOD Technologies, Ltd., Zurich, Switzerland) and used to obtain quantitative activity levels in each organ of interest using region-of-interest analysis.

[2] = Microsomal stability assay, rhesus liver microsomes; format: in vitro ADME
Procedure: Microsomal stability assays The tracer [^18F][A]-d2 or [^18F][A] was dissolved in potassium phosphate (Kpi) buffer (100 mM) at concentration 500-600 μCi/mL. The non-radioactive 7 and 10 were dissolved in Kpi buffer at 10 μM concentration. The reaction vessel was charged with human or mouse liver microsome suspension (12.5 μL, 20 mg/mL) followed by Kpi buffer (388 μL, 10 mM), NADPH (50 μL, 10 mM) and incubated at 37° C. for 5-10 min. A solution of the radioactive [^18F][A]-d2 or [^18F][A] (50 μL, […]) or non-radioactive 7 or 8 (50 μL, 10 μM) were added to the reaction vessel and the mixture was incubated at 37° C. Aliquots (50 μL) of the reaction mixture were taken at 5, 15 and 45 minutes post addition of the tested compound, mixed with ice-cold acetonitrile (100 μL) and centrifuged. The supernatant was analyzed by LCMS (System E). The radiolabeled tracers [^18F][A] and [^18F][A]-d2 (n=3) were incubated with human, rhesus or mouse liver microsome suspension with or without NADPH at 37° C. and the mixture was analyzed for a presence of radioactive metabolites at 5, 15 and 45 min. In the presence of mouse and rhesus liver microsomes, both the [^18F][A] and [^18F][A]-d2 metabolized rapidly to ^18F-fluoride (retention time (rt)=0.38 min), and two radioactive metabolites M2 and M1 (rt=1.2 and 1.4 min). […]

[3] = test system: tau (NFTs) in human brain tissues; assay: Autoradiography on postmortem human brain tissues; format: binding
Procedure: Autoradiography The tracer [^18F][A] or [^18F][A]-d2 was dissolved in PBS containing 5% DMSO and 5% ethanol at final concentration 40 μCi/mL. Then 0.5 ml of stock solution was transferred to a microscope slide with 5 μm thick freshly dried section of a tissue and incubated for 90 min at room temperature. The slides were washed by dipping into following solutions: PBS for 1 min, 70% ethanol 2 min, 30% ethanol 2 min and PBS 1 min. The samples were dried at room temperature for 30 min and exposed to phosphorimager plate for 20 h. The exposed plates were scanned at 25 μm resolution.
Autoradiographic evaluation of [^18F][A] and [^18F][A]-d2 was performed using brain tissues collected postmortem from human donors. […] The positive staining was found in grey matter of tissues containing high level of NFTs and high AD-amyloid characterized as Braak score 5. […] The NFT and Aβ-amyloid burden was measured by standard immunohistochemical methods.

[4] = Microsomal stability assay, mouse liver microsomes; format: in vitro ADME; details: radiolabeled, 5 min, n=3
Procedure: Microsomal stability assays The tracer [^18F][A]-d2 or [^18F][A] was dissolved in potassium phosphate (Kpi) buffer (100 mM) at concentration 500-600 μCi/mL. The non-radioactive 7 and 10 were dissolved in Kpi buffer at 10 μM concentration. The reaction vessel was charged with human or mouse liver microsome suspension (12.5 μL, 20 mg/mL) followed by Kpi buffer (388 μL, 10 mM), NADPH (50 μL, 10 mM) and incubated at 37° C. for 5-10 min. A solution of the radioactive [^18F][A]-d2 or [^18F][A] (50 μL, 250-300 μCi) or non-radioactive 7 or 8 (50 μL, 10 μM) were added to the reaction vessel and the mixture was incubated at 37° C. Aliquots (50 μL) of the reaction mixture were taken at 5, 15 and 45 minutes post addition of the tested compound, mixed with ice-cold acetonitrile (100 μL) and centrifuged. The supernatant was analyzed by LCMS (System E).

reduction in bone uptake versus [18F][A] ([1]; in vivo PET): ~54%
uptake in liver and kidneys, comparison of the two tracers ([1]; n=6): indistinguishable
bone uptake ([1]; n=6, 30-45 min post tracer injection): 14.3±1.7 % ID/g
peak uptake in brain ([1]; n=6, i.v., dynamic PET): 7.4±2.2 % ID/g
stability of parent compound compared with mouse liver microsomes [2]: slightly more stable
autoradiographic binding pattern ([3]; human brain tissues, positive staining in grey matter with high NFTs, Braak score 5): tau specific binding patterns
amount of parent compound [4]: 2.0±0.3%
Structure (SMILES): [2H]C([2H])([18F])CC1CCN(c2ccn3c(n2)nc2ccccc23)CC1 [[^18F][A]-d2, 1,1-dideutero-2-(1-(benzo[4,5]imidazo[1,2-a]pyrimidine-2-yl)piperidin-4-yl)-1-[^18F]fluoroethane]
staining of negative control tissues ([3]; high or moderate amyloid burden but no NFTs, Braak score 3 or 2): not positively stained
